Data: PubChem BioAssay AID330 (DTP/NCI, 2004)
Values joined by “and” are separate entries in the source; they are usually repeats but may differ in a detail not shown here. Equal entries are not always repeated. Inconclusive results and toxic doses are left out. The calls were made as follows: active = survival T/C of 150% or more; inactive = T/C below 125% in these data.

Test system: P388 leukemia ip, CD2F1 mice, survival T/C
Test: NCI In Vivo Anticancer Drug Screen. Data for tumor model P388 Leukemia (intraperitoneal) in CD2F1 (CDF1) mice
Details: endpoint: median survival time, higher = longer survival
Outline: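 Mice carrying the transplanted tumor received test compound or vehicle. Survival was recorded in each group, and the value is the treated-group measurement divided by that of the vehicle-treated control group.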

[1] = dose: 50.0 mg/kg/injection, schedule: Q01DX005 (ip), vehicle: Klucel (hydroxypropylcellulose) (HPC)
[2] = dose: 100.0 mg/kg/injection, schedule: Q01DX005 (ip), vehicle: Klucel (hydroxypropylcellulose) (HPC)
[3] = dose: 200.0 mg/kg/injection, schedule: Q01DX005 (ip), vehicle: Klucel (hydroxypropylcellulose) (HPC)
[4] = dose: 30.0 mg/kg/injection, schedule: Q01DX005 (ip), vehicle: Klucel (hydroxypropylcellulose) (HPC)
[5] = dose: 25.0 mg/kg/injection, schedule: Q04DX002 (ip), vehicle: saline
[6] = dose: 100.0 mg/kg/injection, schedule: Q04DX002 (ip), vehicle: Klucel (hydroxypropylcellulose) (HPC)
[7] = dose: 200.0 mg/kg/injection, schedule: Q04DX002 (ip), vehicle: Klucel (hydroxypropylcellulose) (HPC)
[8] = dose: 400.0 mg/kg/injection, schedule: Q04DX002 (ip), vehicle: Klucel (hydroxypropylcellulose) (HPC)
[9] = dose: 50.0 mg/kg/injection, schedule: Q01DX005 (ip), vehicle: saline with Tween-80
[10] = dose: 100.0 mg/kg/injection, schedule: Q01DX005 (ip), vehicle: saline with Tween-80
[11] = dose: 200.0 mg/kg/injection, schedule: Q01DX005 (ip), vehicle: saline with Tween-80
[12] = dose: 60.0 mg/kg/injection, schedule: Q01DX005 (ip), vehicle: saline with Tween-80
[13] = dose: 120.0 mg/kg/injection, schedule: Q01DX005 (ip), vehicle: saline with Tween-80
[14] = dose: 100.0 mg/kg/injection, schedule: Q04DX003 (ip), vehicle: Klucel (hydroxypropylcellulose) (HPC)
[15] = dose: 200.0 mg/kg/injection, schedule: Q04DX003 (ip), vehicle: Klucel (hydroxypropylcellulose) (HPC)
[16] = dose: 60.0 mg/kg/injection, schedule: Q01DX005 (ip), vehicle: Klucel (hydroxypropylcellulose) (HPC)
[17] = dose: 120.0 mg/kg/injection, schedule: Q01DX005 (ip), vehicle: Klucel (hydroxypropylcellulose) (HPC)
[18] = dose: 240.0 mg/kg/injection, schedule: Q01DX005 (ip), vehicle: Klucel (hydroxypropylcellulose) (HPC)

Measured: T/C

O=c1oc2cc(O)ccc2c2oc3cc(O)ccc3c12
inactive: dose: 50.0 mg/kg/injection, schedule: Q04DX003 (ip), vehicle: saline with Tween-80 100 % of control | dose: 100.0 mg/kg/injection, schedule: Q04DX003 (ip), vehicle: saline with Tween-80 94 % of control | dose: 200.0 mg/kg/injection, schedule: Q04DX003 (ip), vehicle: saline with Tween-80 93 % of control | dose: 400.0 mg/kg/injection, schedule: Q04DX003 (ip), vehicle: saline with Tween-80 93 % of control

COc1cc2c(cc1OC)C13CCC(O)CC1=CC2(C)O3 (configuration not stated)
inactive: dose: 50.0 mg/kg/injection, schedule: Q04DX002 (ip), vehicle: saline with Tween-80 96 % of control | dose: 100.0 mg/kg/injection, schedule: Q04DX002 (ip), vehicle: saline with Tween-80 96 % of control | dose: 200.0 mg/kg/injection, schedule: Q04DX002 (ip), vehicle: saline with Tween-80 89 % of control

O=C1c2ccccc2C(=O)N1Cc1ccccc1Br
inactive: [1] 103 % of control | [2] 101 % of control | [3] 100 % of control

CC1=C(C(=O)Nc2cccc3ccccc23)C(c2cccc([N+](=O)[O-])c2)C(C(=O)Nc2cccc3ccccc23)=C(C)N1
inactive: dose: 7.5 mg/kg/injection, schedule: Q01DX005 (ip), vehicle: Klucel (hydroxypropylcellulose) (HPC) 100 % of control | dose: 15.0 mg/kg/injection, schedule: Q01DX005 (ip), vehicle: Klucel (hydroxypropylcellulose) (HPC) 100 % of control | [4] 103 % of control

O=CNc1nc[nH]c1-c1noc(=O)[nH]1
inactive: [5] 104 % of control | dose: 50.0 mg/kg/injection, schedule: Q04DX002 (ip), vehicle: saline 104 % of control | dose: 100.0 mg/kg/injection, schedule: Q04DX002 (ip), vehicle: saline 104 % of control and 110 % of control

CN(O)C1(/C(N)=N/O)C(C2COC(C)(C)O2)OC2OC(C)(C)OC21 (configuration not stated)
inactive: [6] 106 % of control | [7] 106 % of control | [8] 105 % of control

CC1=CC2(C)C=C(C)C3(OC(c4ccccc4)=C(C#N)C3=N2)C1=O (configuration not stated)
inactive: [9] 103 % of control | [10] 105 % of control | [11] 111 % of control

Cc1ccc2nc(C)cc(N=[N+]=[N-])c2c1
inactive: [12] 95 % of control | [13] 89 % of control

Cc1cccc(Nc2nc(C)nc3[nH]c(CC(C)C)c(C)c23)c1
inactive: [1] 91 % of control | [2] 96 % of control | [3] 98 % of control

CSC(=NC(=O)c1c(Cl)cccc1Cl)SC
inactive: [12] 102 % of control | [13] 100 % of control | dose: 240.0 mg/kg/injection, schedule: Q01DX005 (ip), vehicle: saline with Tween-80 90 % of control

Cc1c2oc3c(C)ccc(C(=O)NC4C(=O)NC(C(C)C)C(=O)N5CCCC5C(=O)N(C)CC(=O)N(C)C(C(C)C)C(=O)OC4C)c3nc-2c(C(=O)NC2C(=O)NC(C(C)C)C(=O)N3CCCC3C(=O)N(C)CC(=O)N(C)C(C(C)C)C(=O)OC2C)c(Cl)c1=O (configuration not stated)
active: dose: 3.13 mg/kg/injection, schedule: Q01DX009 (ip), vehicle: water 150 % of control | dose: 6.25 mg/kg/injection, schedule: Q01DX009 (ip), vehicle: water 172 % of control | dose: 6.4 mg/kg/injection, schedule: Q01DX009 (ip), vehicle: water 171 % of control | dose: 12.5 mg/kg/injection, schedule: Q01DX009 (ip), vehicle: water 172 % of control and 243 % of control
101 % of control and 256 % of control: dose: 25.0 mg/kg/injection, schedule: Q01DX009 (ip), vehicle: water
inactive: dose: 0.05 mg/kg/injection, schedule: Q01DX009 (ip), vehicle: water 98 % of control | dose: 0.1 mg/kg/injection, schedule: Q01DX009 (ip), vehicle: water 96 % of control | dose: 0.2 mg/kg/injection, schedule: Q01DX009 (ip), vehicle: water 114 % of control | dose: 0.4 mg/kg/injection, schedule: Q01DX009 (ip), vehicle: water 106 % of control | dose: 0.8 mg/kg/injection, schedule: Q01DX009 (ip), vehicle: water 110 % of control

O=C(c1ccccc1)c1cnc2ccccn12
inactive: [14] 100 % of control | [15] 100 % of control

C=CCOc1cc2c(cc1C(C)c1ccc(OCCC)cc1)OCO2 (configuration not stated)
inactive: [9] 97 % of control | [10] 102 % of control | [11] 107 % of control

NC1CCCCCCC1O (configuration not stated)
inactive: dose: 5.0 mg/kg/injection, schedule: Q01DX009 (ip), vehicle: saline with Tween-80 104 % of control | dose: 5.0 mg/kg/injection, schedule: Q04DX003 (ip), vehicle: saline 104 % of control | dose: 10.0 mg/kg/injection, schedule: Q01DX009 (ip), vehicle: saline with Tween-80 100 % of control | dose: 10.0 mg/kg/injection, schedule: Q04DX003 (ip), vehicle: saline 100 % of control | dose: 20.0 mg/kg/injection, schedule: Q01DX009 (ip), vehicle: saline with Tween-80 104 % of control | dose: 20.0 mg/kg/injection, schedule: Q04DX003 (ip), vehicle: saline 100 % of control

Cc1ccc(N=S(C)C)cc1
inactive: [6] 100 % of control | [7] 101 % of control | [8] 113 % of control

CCc1[nH]c2ccccc2c1C(=O)c1ccncc1
inactive: dose: 100.0 mg/kg/injection, schedule: Q04DX003 (ip), vehicle: suspension in saline 103 % of control | dose: 200.0 mg/kg/injection, schedule: Q04DX003 (ip), vehicle: suspension in saline 101 % of control | dose: 400.0 mg/kg/injection, schedule: Q04DX003 (ip), vehicle: suspension in saline 108 % of control

N#CC(C(=O)N1CCCC1)=C(S)S
inactive: dose: 100.0 mg/kg/injection, schedule: Q01DX009 (ip), vehicle: saline with Tween-80 100 % of control | dose: 200.0 mg/kg/injection, schedule: Q01DX009 (ip), vehicle: saline with Tween-80 100 % of control | dose: 400.0 mg/kg/injection, schedule: Q01DX009 (ip), vehicle: saline with Tween-80 100 % of control

CC1SC2(C(=O)Nc3ccc(Cl)cc32)N(c2ccc(Cl)cc2)C1=O (configuration not stated)
inactive: [16] 105 % of control | [17] 105 % of control | [18] 108 % of control

COc1ccc(/C=C2/C(=O)N(c3ccccc3)N=C2C)c(OC)c1
inactive: [4] 91 % of control | [16] 88 % of control and 95 % of control | [17] 94 % of control | [18] 86 % of control

O=C1Nc2ccccc2C12Nc1ccccc1N2
inactive: dose: 25.0 mg/kg/injection, schedule: Q04DX003 (ip), vehicle: Klucel (hydroxypropylcellulose) (HPC) 108 % of control | dose: 50.0 mg/kg/injection, schedule: Q04DX003 (ip), vehicle: Klucel (hydroxypropylcellulose) (HPC) 95 % of control | [14] 97 % of control | [15] 90 % of control and 91 % of control

CN(C)C1CC(C)(O)Cc2cc3c(c(O)c21)C(=O)c1c(O)cc2c(c1C3=O)OC1OC2(C)C(O)C(N(C)C)C1O (configuration not stated)
inactive: dose: 3.12 mg/kg/injection, schedule: Q01DX009 (ip), vehicle: other 103 % of control | dose: 6.25 mg/kg/injection, schedule: Q01DX009 (ip), vehicle: other 120 % of control
active: dose: 50.0 mg/kg/injection, schedule: Q01DX009 (ip), vehicle: other 153 % of control

NCCN.O=S(=O)([O-])[O-].[Cu+2].[OH3+].[OH3+]
inactive: dose: 6.25 mg/kg/injection, schedule: Q04DX002 (ip), vehicle: saline 100 % of control | dose: 12.5 mg/kg/injection, schedule: Q04DX002 (ip), vehicle: saline 100 % of control | [5] 100 % of control

COC(=O)C(Cc1c[nH]c2ccccc12)NC(=O)C(NC(=O)OC(C)(C)C)C(C)C (configuration not stated)
inactive: dose: 50.0 mg/kg/injection, schedule: Q01DX009 (ip), vehicle: Klucel (hydroxypropylcellulose) (HPC) 101 % of control | dose: 100.0 mg/kg/injection, schedule: Q01DX009 (ip), vehicle: Klucel (hydroxypropylcellulose) (HPC) 99 % of control | dose: 200.0 mg/kg/injection, schedule: Q01DX009 (ip), vehicle: Klucel (hydroxypropylcellulose) (HPC) 97 % of control | dose: 400.0 mg/kg/injection, schedule: Q01DX009 (ip), vehicle: Klucel (hydroxypropylcellulose) (HPC) 90 % of control

CCOC(=O)/N=[N+](\[O-])c1cccc(Br)c1
inactive: dose: 100.0 mg/kg/injection, schedule: Q01DX001 (ip), vehicle: Klucel (hydroxypropylcellulose) (HPC) 101 % of control
